Assay results published in publication PMC11352273, “The Proapoptotic Action of Pyrrolidinedione–Thiazolidinone Hybrids towards Human Breast Carcinoma Cells Does Not Depend on Their Genotype” (Cancers, 2024).
Values joined by “and” are separate entries in the source; they are usually repeats but may differ in a detail not shown here. Equal entries are not always repeated.

Key:
HCC1954 cells = assay: Clonogenic assay; assay type: cell-based, human; details: for IC50: Homo sapiens, HCC1954, 72 h exposure, 14 days culture, read-out: IC50 (M ± SD) in clonogenic assay
Method: (§1) The clonogenic assay was carried out utilizing the previously published methodology. The MCF-7, MDA-MB-231, HCC1954, and MCF-10A cells (500 cells/2 mL) were seeded in a 12-well plate overnight. Afterward, studied derivatives or doxorubicin (1, 2.5, 5, 10, and 50 µM) were added to cells. The media was changed after 72 h to a compound-free one, and the cells were cultured for the following 14 days. Then, the cells were washed, fixed, and stained with 0.1% crystal violet. After washing, the plates were dried at room temperature. The colonies were recorded by ImageJ software (Version 1.30). The value of colonies in control (non-treated cells) was accepted as 100%. The effect of compounds on the colony-forming ability of cells was expressed as the percentage of colonies compared to the control.

MCF-7 cells [1] = assay: Clonogenic assay; assay type: cell-based, human; details: for IC50: Homo sapiens, MCF7, MCF-7, 72 h exposure, 14 days culture, read-out: IC50 (M ± SD) in clonogenic assay
Method: as §1

MDA-MB-231 cells [2] = assay: Clonogenic assay; assay type: cell-based, human; details: for IC50: Homo sapiens, MDA-MB-231, 72 h exposure, 14 days culture, read-out: IC50 (M ± SD) in clonogenic assay
Method: as §1

MCF-10A cells = assay: [3H]-thymidine incorporation assay; assay type: cell-based; details: Homo sapiens, 24 h, read-out: IC50 (M ± SD) in [3H]-thymidine assay (DNA synthesis)
Method: (§2) Following a 24 h cell treatment, the incorporation of [^3H]-thymidine into the DNA of the breast tumor and normal cells was used to measure the antiproliferative activity of Les-6287. The MCF-7, MDA-MB-231, HCC1954, and MCF-10A cells were seeded into six-well plates (density 3 × 10^5 cells/well) and cultured for 24 h. Then, they were incubated under the same conditions for the next 24 h with a growth medium containing the tested compounds and reference drug (doxorubicin) at different concentrations (1, 2.5, 5, 10, 50 µM). After 24 h, the medium was changed to a fresh one without FBS. A total of 0.5 µCi of tritium-labeled thymidine (specific activity: 7 Ci/mmol) was added to cells for 4 h. The cells were washed with 1 mL of 0.05 M Tris-HCl buffer pH 7.4 containing 0.11 M NaCl and 1 mL of 5% trichloroacetic acid (TCA). Each well was filled with 1 mL of a 0.1 M NaOH solution containing 1% SDS to complete cell lysis. After 5 min, the acquired cell lysates were put into scintillation vials and pre-filled with two milliliters of scintillation liquid. The Scintillation Counter 1900 TR, TRI-CARB (Packard, Perkin Elmer, Inc., San Jose, CA, USA) was used to record the results. The effect of compounds on DNA synthesis was expressed as % of the control (non-treated cells).

MCF-7 cells [3] = assay: [3H]-thymidine incorporation assay; assay type: cell-based; details: Homo sapiens, MCF7; MCF-7, 24 h; read-out: IC50 (M ± SD) in [3H]-thymidine assay (DNA synthesis)
Method: as §2

MDA-MB-231 cells [4] = assay: [3H]-thymidine incorporation assay; assay type: cell-based; details: Homo sapiens; MDA-MB-231, 24 h; read-out: IC50 (M ± SD) in [3H]-thymidine assay (DNA synthesis)
Method: as §2

MCF-7 cells [5] = assay: Annexin V/PI flow cytometry of apoptosis; assay type: cell-based, human; details: MCF-7, 24 h
Method: (§3) Cells were washed twice with cold PBS and resuspended in the Binding Buffer from the Kit. The FITC Annexin V and propidium iodide (PI) were added to 100 µL of cell suspension and incubated for 15 min at room temperature, protected from light. Then, 300 µL of Binding Buffer was added, and samples were analyzed using a flow cytometer. A total of 10,000 events were measured. The FACSDiva software (Version 6.1.3, BD Biosciences Systems, San Jose, CA, USA) was applied to analyze all flow cytometry data. The BD Cytometer Setup and Tracking Beads (BD Biosciences, San Diego, CA, USA) were used for the calibration of the flow cytometer.

MDA-MB-231 cells [6] = assay: Annexin V/PI flow cytometry of apoptosis; assay type: cell-based, human; details: MDA-MB-231, 24 h
Method: as §3

MMP-2 in MCF-7 cells = assay: MMP-2 ELISA in culture supernatants; assay type: cell-based, human; details: MCF-7, 24 h, control 610.57 pg/mL
Method: (§4) In order to determine the Beclin-1 concentration in the cell lysates, the SimpleStep ELISA (Abcam, Cambridge, UK) Kit was used. MMP-2, MMP-9, and ICAM-1 concentrations were measured in culture supernatants using high-sensitivity human SimpleStep ELISA kits (Abcam, Cambridge, UK) according to the manufacturer’s protocols. The LC3B ELISA kit (BT LAB, Shanghai, China) was used to check the protein concentration in cell lysates from analyzed breast cancer cells. The procedure for preparing the samples was shown previously.

[7] = tested on: MMP-2 in MDA-MB-231 cells; assay: MMP-2 ELISA in culture supernatants; assay type: cell-based, human; details: MDA-MB-231, 24 h, 2 μM; control 1055.21 pg/mL
Method: as §4

[8] = tested on: MMP-9 in MDA-MB-231 cells; assay: MMP-9 ELISA in culture supernatants; assay type: cell-based, human; details: MDA-MB-231, 24 h, all examined doses
Method: as §4

[9] = tested on: ICAM-1 in MDA-MB-231 cells; assay: ICAM-1 ELISA in culture supernatants; assay type: cell-based, human; details: for ICAM-1 concentration: 2 µM (highest dose), control 841.55 pg/mL
Method: as §4

[10] = tested on: caspase 9 in MDA-MB-231 cells; assay: Caspase-9 activity, FAM-FLICA flow cytometry; assay type: cell-based, human; details: MDA-MB-231, 24 h
Method: The assay was performed following the manufacturer’s instructions and the previously described methodology [25]. […] The cells were gathered, rinsed twice with chilled PBS, and reconstituted in an Apoptosis Wash Buffer. Then, 10 µL of freshly diluted FLICA solution was added to 290 µL of cell suspension and incubated for an hour at 37 °C. Following two rounds of washing with 2 mL of Apoptosis Wash Buffer, the cells were centrifuged, resuspended in 300 µL of the buffer, and then analyzed [25].

[11] = tested on: mitogen-activated lymphocytes collected from the peripheral blood of a healthy donor; set-up: method as in PMID 37579525; details: cited from earlier work

Row | Compound | IC50 (HCC1954 cells) [nM] | IC50 (MCF-7 cells [1]) [nM] | IC50 (MDA-MB-231 cells [2]) [nM] | IC50 (MCF-10A cells) [nM] | IC50 (MCF-7 cells [3]) [nM] | IC50 (MDA-MB-231 cells [4]) [nM] | early apoptotic cells (MCF-7 cells [5]; 1 µM) [%] | late apoptotic cells (MCF-7 cells [5]; 1 µM) [%] | necrotic cells (MCF-7 cells [5]; 1 µM) | early apoptotic cells (MDA-MB-231 cells [6]; 1 µM) [%] | late apoptotic cells (MDA-MB-231 cells [6]; 1 µM) [%] | necrotic cells (MDA-MB-231 cells [6]; 1 µM) | concentration of MMP-2 [7] [pg/mL] | MMP-9 concentration versus control [8] | ICAM-1 concentration ([9]; MDA-MB-231, 24 h) [pg/mL] | also measured
1 | COc1cccc2c1C(=O)c1c(O)c3c(c(O)c1C2=O)C[C@@](O)(C(=O)CO)C[C@@H]3O[C@H]1C[C@H](N)[C@H](O)[C@H](C)O1 [Dox, doxorubicin, reference compound] | 430 ± 110 | 420 ± 80 | 420 ± 110 | 3190 ± 430 | 660 ± 130 | 630 ± 110 | 0.55 ± 0.07 | 60.60 ± 7.35 | 31.75 ± 5.59% and 31.75% | 0.10 ± 0.01 | 42.20 ± 17.25 | 51.25 ± 3.36% and 51.25% | 470.57 | decreased | 583.04 | concentration of MMP-2 (MMP-2 in MCF-7 cells; 2 μM): 425.40 pg/mL; ICAM-1 concentration versus control ([9]; MDA-MB-231, 24 h, 1.0 and 1.5 µM): increased
2 | O=C1CC(N2C(=O)C(=CC(Cl)=Cc3ccc([N+](=O)[O-])cc3)SC2=S)C(=O)N1c1ccc(O)cc1 (stereo not drawn) [Les-6287, 1-(4-hydroxyphenyl)-3-[5-[2-chloro-3-(4-nitrophenyl)prop-2-enylidene]-4-oxo-2-thioxothiazolidine-3-yl]pyrrolidine-2,5-dione] | 430 ± 110 | 420 ± 80 | 420 ± 110 | 43500 ± 1160 | 2370 ± 20 | 2320 ± 40 | 3.85 ± 1.20 | 21.60 ± 0.78 | 0.50 ± 0.24% | 2.10 ± 0.14 | 5.10 ± 0.49 | 0.90 ± 0.02% | 711.74 | decreased | 157.25 | formation of colonies (HCC1954 cells; HCC1954, compound at 1 µM): totally inhibited; formation of colonies (MCF-7 cells [1]; MCF-7, compound at 1 µM): totally inhibited; formation of colonies (MDA-MB-231 cells [2]; MDA-MB-231, compound at 1 µM): totally inhibited; early apoptotic cells (MCF-7 cells [5]; 1.5 µM): 2.30 ± 0.42%; late apoptotic cells (MCF-7 cells [5]; 1.5 µM): 29.35 ± 6.43%; necrotic cells (MCF-7 cells [5]; 1.5 µM): 0.30 ± 0.11%; necrotic cells, range (MCF-7 cells [5]; 1 and 1.5 µM): 0.30–0.50%; early apoptotic cells (MDA-MB-231 cells [6]; 1.5 µM): 5.65 ± 0.92%; late apoptotic cells (MDA-MB-231 cells [6]; 1.5 µM): 29.00 ± 9.76%; necrotic cells (MDA-MB-231 cells [6]; 1.5 µM): 4.50 ± 1.82%; necrotic cells, range (MDA-MB-231 cells [6]; 1 and 1.5 µM): 0.90–4.50%; cells with active caspase 9 ([10]; 1 µM): 15.30 ± 0.80%; cells with active caspase 9 ([10]; 1.5 µM): 21.88 ± 2.00%; concentration of MMP-2 (MMP-2 in MCF-7 cells; compound concentration not stated (most significant decrease)): 395.91 pg/mL; inhibitory effect on ICAM-1 concentration relative to doxorubicin ([9]; MDA-MB-231): almost four times stronger; IC50 [11]: 29000 to 67000 nM
